Results published in patent publication US10227308B2, “Radiolabeled cannabinoid receptor 2 ligand” (Hoffmann-La Roche Inc., priority 2014, dated 2019).

What was measured:
human CB1 receptors = biological target: T1, human CB1 receptors (Homo sapiens, UniProt P21554); experiment: Radioligand competition binding of [^3H]-CP55940, CHO-K1 cell membranes; settings: [^3H]-CP55940 0.3 nM, n=6
T1 construct: host or cells: CHO-K1 beta-arrestin cells
Description: (§1) CHO-K1 beta-arrestin cells (DiscoveRx Inc., Fremont, Calif.) expressing human CB1 and human CB2 were cultured in F-12 Nutrient Mixture (HAM) supplemented with 10% FBS, 300 μg ml-1 hygromycin and 800 μg ml-1 geneticin (G418). Cells were incubated in a humidified atmosphere at 37° C. with 5% CO2.
(§2) Stably transfected cells or spleen tissue were homogenized in 15 mmol L-1 Hepes, 0.3 mmol L-1 EDTA, 1 mmol L-1 EGTA, 2 mmol L-1 MgCl2, complete EDTA-free protease inhibitor (Roche Applied Science, Rotkreuz, Switzerland), pH 7.4 using a glass potter and centrifugation at 47,800 g at 4° C. for 30 min. The pellet was then rehomogenized twice in the same buffer and centrifuged (47,800 g, 4° C., 30 min). […]
(§3) For competition binding, membrane preparations were incubated either with 0.3 nM of [^3H]-CP55940 in the presence or absence of increasing concentrations of unlabeled (R^1═CH3) compound of formula (I) or with 1.5 nM compound of formula (I) and increasing amounts of membranes (2.5-80 μg) in the presence or absence of CP55940 (10 μM) for 60 min at 30° C. in a final volume of 0.2 mL of 50 mmol L-1 Tris-HCl, 5 mmol L-1 MgCl2, 2.5 mmol L-1 EGTA, 0.1% fatty acid-free BSA and 1% DMSO, pH 7.4, buffer, gently shaking. […] IC50 values and Hill slopes were determined by a four parameter logistic model using ActivityBase (ID Business Solution, Ltd.).

CB2 receptors [1] = biological target: T2, CB2 receptors (Homo sapiens, UniProt P34972); experiment: as above; design: host or cells: CHO-K1 beta-arrestin cells; settings: [^3H]-CP55940 0.3 nM, n=13
T2 sequence (P34972 whole entry): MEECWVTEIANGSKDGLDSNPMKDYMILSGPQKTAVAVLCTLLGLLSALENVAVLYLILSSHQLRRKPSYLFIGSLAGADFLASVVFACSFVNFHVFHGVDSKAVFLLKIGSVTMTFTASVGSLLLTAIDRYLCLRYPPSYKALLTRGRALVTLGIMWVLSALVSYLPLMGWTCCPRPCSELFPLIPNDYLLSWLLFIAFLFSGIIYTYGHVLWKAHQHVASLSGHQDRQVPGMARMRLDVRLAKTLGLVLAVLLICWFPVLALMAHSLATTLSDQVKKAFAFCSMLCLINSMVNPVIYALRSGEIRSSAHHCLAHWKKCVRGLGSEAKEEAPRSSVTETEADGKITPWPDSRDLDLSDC
Description: as §1, §2, §3

mouse CB2 receptors = biological target: T3, mouse CB2 receptors (Mus musculus, UniProt P47936); experiment: Radioligand saturation binding using mouse spleen tissue WT
T3 construct: from tissue; host or cells: mouse spleen (wild type)
T3 sequence (P47936 whole entry): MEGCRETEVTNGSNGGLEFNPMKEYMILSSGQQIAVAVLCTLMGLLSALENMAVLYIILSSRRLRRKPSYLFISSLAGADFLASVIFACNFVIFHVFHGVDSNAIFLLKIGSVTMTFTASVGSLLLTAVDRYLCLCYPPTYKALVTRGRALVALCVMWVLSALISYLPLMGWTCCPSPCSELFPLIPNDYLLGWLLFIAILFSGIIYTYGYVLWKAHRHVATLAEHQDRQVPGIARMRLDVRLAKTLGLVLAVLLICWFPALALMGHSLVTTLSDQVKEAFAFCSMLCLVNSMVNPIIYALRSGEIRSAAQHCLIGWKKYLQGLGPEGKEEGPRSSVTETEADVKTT
Description: (§4) Stably transfected cells or spleen tissue were homogenized in 15 mmol L-1 Hepes, 0.3 mmol L-1 EDTA, 1 mmol L-1 EGTA, 2 mmol L-1 MgCl2, complete EDTA-free protease inhibitor (Roche Applied Science, Rotkreuz, Switzerland), pH 7.4 using a glass potter and centrifugation at 47,800 g at 4° C. for 30 min. The pellet was then rehomogenized twice in the same buffer and centrifuged (47,800 g, 4° C., 30 min). The final pellet was then resuspended in 75 mmol L-1 Tris, 0.3 mmol L-1 EDTA, 1 mmol L-1 EGTA, 12.5 mmol L-1 MgCl2, 250 mmol L-1 sucrose, pH 7.4 at a protein concentration of 1 to 3 mg mL-1, aliquoted, frozen on dry ice and stored at −80° C.
Saturation binding was performed with 0.05 to 2.4 nM compound of formula (I) and 40 μg of membrane protein. CP55940 (10 μM) was used to define nonspecific binding. Assay buffer consisted of 50 mmol L-1 Tris-HCl, 5 mmol L-1 MgCl2, 2.5 mmol L-1 EGTA, and 0.1% fatty acid-free BSA, pH 7.4. Assays were initiated by addition of membranes in a final volume of 250 μl/well. Assays were incubated for 2 h at room temperature and then vacuum filtered and rinsed with wash buffer (50 mmol L-1 Tris-HCl, 5 mmol L-1 MgCl2, 2.5 mmol L-1 EGTA, and 0.5% fatty acid-free BSA, pH 7.4) on a Filtermate cell harvester through Packard GF/B filters presoaked in 0.3% polyethylenimine.

CB2 receptors [2] = biological target: T4, CB2 receptors (Mus musculus, UniProt P47936); experiment: Radioligand binding (1.5 nM) with increasing amounts of membranes, mouse spleen tissue WT; settings: 1.5 nM radioligand
T4 construct: from tissue; host or cells: mouse spleen (wild type)
T4 sequence (P47936 whole entry): as above
Description: as §4, §3

[3] = Radioligand binding using mouse spleen KO (CB2 deficient mice); settings: mouse spleen tissue from CB2 deficient mice, increasing amounts of membranes
Description: as §4, §3

CB2 receptors [4] = biological target: T2, CB2 receptors; experiment: Binding of HU-910 / [^3H]-HU-910 to CB2 receptors; settings: CB2 receptors labeled with [^3H]-CP55940

T1 sequence (P21554 whole entry): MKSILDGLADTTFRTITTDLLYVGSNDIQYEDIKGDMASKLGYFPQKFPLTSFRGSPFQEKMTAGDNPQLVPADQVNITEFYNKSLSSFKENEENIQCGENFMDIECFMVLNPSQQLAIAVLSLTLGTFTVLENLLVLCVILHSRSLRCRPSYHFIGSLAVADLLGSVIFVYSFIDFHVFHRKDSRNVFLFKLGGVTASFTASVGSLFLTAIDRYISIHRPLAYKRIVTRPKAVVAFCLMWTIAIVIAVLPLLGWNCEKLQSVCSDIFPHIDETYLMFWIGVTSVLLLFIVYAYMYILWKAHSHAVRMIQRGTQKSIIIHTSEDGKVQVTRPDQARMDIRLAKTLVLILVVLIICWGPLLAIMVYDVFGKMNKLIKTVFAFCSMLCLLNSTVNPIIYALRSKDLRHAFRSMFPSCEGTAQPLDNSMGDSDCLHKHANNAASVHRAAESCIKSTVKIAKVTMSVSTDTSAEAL

## Cn1c(C(C)(C)C)cc(=NC(=O)c2cc(C(F)(F)F)ccc2OCC(C)(C)O)n1CC1CCC1
Human CB1 receptors
  Ki: 3890 nM
CB2 receptors [1]
  Ki: 1.07 nM

## [3H]C([3H])([3H])n1c(C(C)(C)C)c/c(=N\C(=O)c2cc(C(F)(F)F)ccc2OCC(C)(C)O)n1CC1CCC1 [Example 1, (NE)-N-[5-tert-butyl-2-(cyclobutylmethyl)-1-(tritritiomethyl)pyrazol-3-ylidene]-2-(2-hydroxy-2-methyl-propoxy)-5-(trifluoromethyl)benzamide]
Mouse CB2 receptors
  saturability of specific binding: saturable
Mouse CB2 receptors; saturation binding
  CB2 receptor expression level (Bmax): 430 fmol/mg
Mouse CB2 receptors; saturation binding, read-out: half maximal affinity (Kd)
  Kd: 0.58 nM
CB2 receptors [2]
  specific binding: high specific binding
[3]
  specific binding: lack of specific binding

## CCCCCCC(C)(C)c1cc(OC)c(C2=C[C@H]3CC[C@]2(CO)C3(C)C)c(OC)c1 [HU-910]
CB2 receptors [4]
  binding to CB2 receptors: selectively and competitively binds to CB2 receptors
